Each structure is given as a SMILES string. pKd: −log10 of the molar value. A value given as a limit tells only on which side of the number the result lay.

The values that follow come from patent US11028079B2 (ConverGene LLC, priority 2015, dated 2021).

The experiment concerns the target T1, BRD4 bromodomains (Homo sapiens, UniProt O60885).
T1 construct: fused on or other part: T7 phage capsid protein (phage-display fusion; the phage DNA is read out by qPCR)
The experiment is described as follows: BROMOscan bromodomain competition binding assay (DiscoveRx). As to conditions: Kd from 11 compound concentrations ranging from 0 to 10 μM, read-out: BROMOscan Relative Activity. The procedure, abridged:
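Compounds in 0.1% DMSO/0.9% MEG competed with a solid-phase acetylated peptide for T7 phage-fused BRD4 bromodomains, with the retained bromodomain measured by qPCR.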
As to `Cc1noc(C)c1-c1ccc2nc(-c3cnn(CC(N)=O)c3)nc(NCc3cncc(Cl)c3)c2c1` [Example 142, 2-(4-(4-(((5-chloropyridin-3-yl)methyl)amino)-6-(3,5-dimethylisoxazol-4-yl)quinazolin-2-yl)-1H-pyrazol-1-yl)acetamide], the pKd was over 6.30.

`Cn1cc(-c2ccc3nc(-c4cnn(CCO)c4)nc(NCc4cncc(Cl)c4)c3c2)ccc1=O` [Example 143, 5-(4-(((5-chloropyridin-3-yl)methyl)amino)-2-(1-(2-hydroxyethyl)-1H-pyrazol-4-yl)quinazolin-6-yl)-1-methylpyridin-2(1H)-one]: the pKd is over 6.30.

As to `Cc1noc(C)c1-c1ccc2nc(-c3cnn(CCO)c3)nc(NCc3cncc(Cl)c3)c2c1` [Example 144, 2-(4-(4-(((5-chloropyridin-3-yl)methyl)amino)-6-(3,5-dimethylisoxazol-4-yl)quinazolin-2-yl)-1H-pyrazol-1-yl)ethanol], the pKd was over 6.30.

Take `Cn1cc(-c2ccc3nc(-c4cnn(CC(N)=O)c4)nc(NCc4cncc(Cl)c4)c3c2)ccc1=O` [Example 145, 2-(4-(4-(((5-chloropyridin-3-yl)methyl)amino)-6-(1-methyl-6-oxo-1,6-dihydropyridin-3-yl)quinazolin-2-yl)-1H-pyrazol-1-yl)acetamide]: the pKd is 5.30 to 6.30.

In the case of `CN(C)C(=O)Cn1cc(-c2nc(NCc3cncc(Cl)c3)c3cc(-c4ccc(=O)n(C)c4)ccc3n2)cn1` [Example 146, 2-(4-(4-(((5-chloropyridin-3-yl)methyl)amino)-6-(1-methyl-6-oxo-1,6-dihydropyridin-3-yl)quinazolin-2-yl)-1H-pyrazol-1-yl)-N,N-dimethylacetamide], the pKd was over 6.30.

For the compound `CNC(=O)Cn1cc(-c2nc(NCc3cncc(Cl)c3)c3cc(-c4ccc(=O)n(C)c4)ccc3n2)cn1` [Example 147, 2-(4-(4-(((5-chloropyridin-3-yl)methyl)amino)-6-(1-methyl-6-oxo-1,6-dihydropyridin-3-yl)quinazolin-2-yl)-1H-pyrazol-1-yl)-N-methylacetamide], the pKd was over 6.30.

For the compound `Cn1cc(-c2ccc3nc(-c4cnn(CC(C)(C)O)c4)nc(NCc4cncc(Cl)c4)c3c2)ccc1=O` [Example 148, 5-(4-(((5-chloropyridin-3-yl)methyl)amino)-2-(1-(2-hydroxy-2-methylpropyl)-1H-pyrazol-4-yl)quinazolin-6-yl)-1-methylpyridin-2(1H)-one], the pKd was 5.30 to 6.30.

Take `Cn1cc(-c2ccc3nc(-c4cnn(C(C)(C)CO)c4)nc(NCc4cncc(Cl)c4)c3c2)ccc1=O` [Example 149, 5-(4-(((5-chloropyridin-3-yl)methyl)amino)-2-(1-(1-hydroxy-2-methylpropan-2-yl)-1H-pyrazol-4-yl)quinazolin-6-yl)-1-methylpyridin-2(1H)-one]: the pKd was over 6.30.

Turning to `Cc1noc(C)c1-c1ccc2nc(-c3cnn(CCO)c3)nc(Nc3ccc(Cl)cc3)c2c1` [Example 150, 2-(4-(4-((4-chlorophenyl)amino)-6-(3,5-dimethylisoxazol-4-yl)quinazolin-2-yl)-1H-pyrazol-1-yl)ethanol], the pKd was 5.30 to 6.30.

`Cc1noc(C)c1-c1ccc2nc(Cl)nc(Nc3ccc(Cl)cc3)c2c1` [Example 151, 2-chloro-N-(4-chlorophenyl)-6-(3,5-dimethylisoxazol-4-yl)quinazolin-4-amine]: the pKd was under 5.30.

Turning to `Cc1noc(C)c1-c1ccc2nc(N3CCN(S(C)(=O)=O)CC3)nc(NCc3cncc(Cl)c3)c2c1` [Example 152, N-((5-chloropyridin-3-yl)methyl)-6-(3,5-dimethylisoxazol-4-yl)-2-(4-(methylsulfonyl)piperazin-1-yl)quinazolin-4-amine], the pKd was over 6.30.

Regarding `Cc1noc(C)c1-c1ccc2nc(N3CCC(S(C)(=O)=O)CC3)nc(NCc3cccc(Cl)c3)c2c1` [Example 153, N-(3-chlorobenzyl)-6-(3,5-dimethylisoxazol-4-yl)-2-(4-(methylsulfonyl)piperidin-1-yl)quinazolin-4-amine], the pKd was over 6.30.

For the compound `Cc1noc(C)c1-c1ccc2nc(N3CCC(S(C)(=O)=O)CC3)nc(NCc3cncc(Cl)c3)c2c1` [Example 154, N-((5-chloropyridin-3-yl)methyl)-6-(3,5-dimethylisoxazol-4-yl)-2-(4-(methylsulfonyl)piperidin-1-yl)quinazolin-4-amine], the pKd is over 6.30.

For the compound `Cc1noc(C)c1-c1ccc2nc(N3CCN(S(C)(=O)=O)CC3)nc(NCc3cccc(Cl)c3)c2c1` [Example 155, N-(3-chlorobenzyl)-6-(3,5-dimethylisoxazol-4-yl)-2-(4-(methylsulfonyl)piperazin-1-yl)quinazolin-4-amine], the pKd is over 6.30.

On to `Cc1noc(C)c1-c1ccc2nc(N3CCC(C)(C#N)CC3)nc(NCc3cccc(Cl)c3)c2c1` [Example 156, 1-(4-((3-chlorobenzyl)amino)-6-(3,5-dimethylisoxazol-4-yl)quinazolin-2-yl)-4-methylpiperidine-4-carbonitrile], for which the pKd is 5.30 to 6.30.

Regarding `Cc1noc(C)c1-c1ccc2nc(N3CCC(C)(C#N)CC3)nc(NCc3cncc(Cl)c3)c2c1` [Example 157, 1-(4-(((5-chloropyridin-3-yl)methyl)amino)-6-(3,5-dimethylisoxazol-4-yl)quinazolin-2-yl)-4-methylpiperidine-4-carbonitrile], the pKd was over 6.30.

In the case of `Cc1noc(C)c1-c1ccc2ncnc(Nc3ccc(Cl)cc3)c2c1` [Example 158, N-(4-chlorophenyl)-6-(3,5-dimethylisoxazol-4-yl)quinazolin-4-amine], the pKd is 5.30 to 6.30.

With `Cn1cc(-c2ccc3ncnc(Nc4ccc(Cl)cc4)c3c2)ccc1=O` [Example 159, 5-(4-((4-chlorophenyl)amino)quinazolin-6-yl)-1-methylpyridin-2(1H)-one], the pKd is under 5.30.

For `Cc1noc(C)c1-c1ccc2nc(N3CCN(CCN(C)C)CC3)nc(NCCc3ccc(Cl)cc3)c2c1` [Example 160, N-(4-chlorophenethyl)-2-(4-(2-(dimethylamino)ethyl)piperazin-1-yl)-6-(3,5-dimethylisoxazol-4-yl)quinazolin-4-amine], the pKd was 5.30 to 6.30.

Consider `Cc1noc(C)c1-c1ccc2nc(N3CCN(CCN(C)C)CC3)nc(N3CC(Cc4ccccc4)C3)c2c1` [Example 161, 2-(4-(4-(3-benzylazetidin-1-yl)-6-(3,5-dimethylisoxazol-4-yl)quinazolin-2-yl)piperazin-1-yl)-N,N-dimethylethanamine], for which the pKd was 5.30 to 6.30.

`Cc1noc(C)c1-c1ccc2nc(N3CCN(CCN(C)C)CC3)nc(Nc3ccc(Cl)cc3)c2c1` [Example 162, N-(4-chlorophenyl)-2-(4-(2-(dimethylamino)ethyl)piperazin-1-yl)-6-(3,5-dimethylisoxazol-4-yl)quinazolin-4-amine]: the pKd was 5.30 to 6.30.

As to `Cc1noc(C)c1-c1ccc2nc(C(=O)O)nc(NCc3cccc(Cl)c3)c2c1` [Example 163, 4-((3-chlorobenzyl)amino)-6-(3,5-dimethylisoxazol-4-yl)quinazoline-2-carboxylic acid], the pKd was over 6.30.

As to `Cc1noc(C)c1-c1ccc2nc(-c3cnn(CCO)c3)nc(NC3(c4cccc(Cl)c4)CC3)c2c1` [Example 164, 2-(4-(4-((1-(3-chlorophenyl)cyclopropyl)amino)-6-(3,5-dimethylisoxazol-4-yl)quinazolin-2-yl)-1H-pyrazol-1-yl)ethanol], the pKd is over 6.30.

As to `Cc1noc(C)c1-c1ccc2nc(C(=O)N3CCN(CCN(C)C)CC3)nc(NCc3cccc(Cl)c3)c2c1` [Example 165, (4-((3-chlorobenzyl)amino)-6-(3,5-dimethylisoxazol-4-yl)quinazolin-2-yl)(4-(2-(dimethylamino)ethyl)piperazin-1-yl)methanone], the pKd was 5.30 to 6.30.

`Cc1noc(C)c1-c1ccc2nc(-c3cnn(CC(=O)O)c3)nc(NCc3cccc(Cl)c3)c2c1` [Example 166, 2-(4-(4-((3-chlorobenzyl)amino)-6-(3,5-dimethylisoxazol-4-yl)quinazolin-2-yl)-1H-pyrazol-1-yl)acetic acid]: the pKd was over 6.30.

Turning to `Cc1noc(C)c1-c1ccc2nc(NCc3ccc(Cl)cc3)nc(NCc3cccc(Cl)c3)c2c1` [Example 167, N4-(3-chlorobenzyl)-N2-(4-chlorobenzyl)-6-(3,5-dimethylisoxazol-4-yl)quinazoline-2,4-diamine], the pKd was under 5.30.

For `Cc1noc(C)c1-c1ccc2nc(C(=O)NCc3ccc(Cl)cc3)nc(NCc3cccc(Cl)c3)c2c1` [Example 168, N-(4-chlorobenzyl)-4-((3-chlorobenzyl)amino)-6-(3,5-dimethylisoxazol-4-yl)quinazoline-2-carboxamide], the pKd was under 5.30.

For the compound `Cc1noc(C)c1-c1ccc2nc(Oc3ccc(Cl)cc3)nc(NCc3cccc(Cl)c3)c2c1` [Example 169, N-(3-chlorobenzyl)-2-(4-chlorophenoxy)-6-(3,5-dimethylisoxazol-4-yl)quinazolin-4-amine], the pKd is under 5.30.

Take `Cc1noc(C)c1-c1ccc2nc(N3CCN(CCN(C)C)CC3)nc(NC3(c4cccc(Cl)c4)CC3)c2c1` [Example 170, N-(1-(3-chlorophenyl)cyclopropyl)-2-(4-(2-(dimethylamino)ethyl)piperazin-1-yl)-6-(3,5-dimethylisoxazol-4-yl)quinazolin-4-amine]: the pKd is over 6.30.

On to `Cc1noc(C)c1-c1ccc2nc(C(=O)NCc3ccncc3)nc(NCc3cccc(Cl)c3)c2c1` [Example 171, 4-((3-chlorobenzyl)amino)-6-(3,5-dimethylisoxazol-4-yl)-N-(pyridin-4-ylmethyl)quinazoline-2-carboxamide], for which the pKd was over 6.30.

As for `Cc1noc(C)c1-c1ccc2nc(C(=O)NC3CCN(C)CC3)nc(NCc3cccc(Cl)c3)c2c1` [Example 172, 4-((3-chlorobenzyl)amino)-6-(3,5-dimethylisoxazol-4-yl)-N-(1-methylpiperidin-4-yl)quinazoline-2-carboxamide], the pKd is over 6.30.
